This note sets out measurements from PMC7998760, “Solubility, Permeability, Anti-Inflammatory Action and In Vivo Pharmacokinetic Properties of Several Mechanochemically Obtained Pharmaceutical Solid Dispersions of Nimesulide” (Molecules, 2021).

Molecules are shown by their SMILES.

Series [1] relates to histamine edema. Description: Anti-inflammatory study, histamine edema model. The class given is in vivo, CD-1 mice. The following applies: oral single administration, doses 5, 10, 20 mg/kg of NIM, p < 0.05 compare to control. Here is the method: (§1) CD-1 mice weighing 20–25 g were obtained from the vivarium of the Institute of Cytology and Genetic SB RAS. Animals were kept under standard conditions with free access to water and food with humidity and temperature-controlled rooms with light and dark 12 h cycles.
“Histamine swelling” was reproduced by introducing of 0.05 mL of 0.1% histamine solution under aponeurosis of the hind paw. The test compounds were administered by oral gavage 1 h before administration of inflammatory agent. The swelling degree was evaluated after 5 h by comparison the legs mass with inflammatory agent (m1) and without it (m2). The degree of inflammation (ID) for each mouse was calculated by the following formula (Equation (6)): (6) ID=m1−m2/m2×100%
The statistical analysis was performed using Mann–Whitney U test. Data shown as Mean ± SEM. p < 0.05 was considered to be statistically significant.

A short description of series [2]: Pharmacokinetic study after a single per os administration. The class given is in vivo, CD-1 mice. Here is the method:
as §1
Mice were randomized by weight and divided into groups and deprived of food for 12 h prior to the experiment. […] Complexes were dissolved in distilled water. […] Blood samples were withdrawn after decapitation at 5, 15, 30, 45, 60, 90 120, 180 and 300 min (n = 5 for each time point) after introduction. Then, all the blood samples were centrifuged for 15 min at 1640× g and the supernatant serum fraction was transferred to empty tubes and kept frozen at −20 °C prior to analysis. The preparation of a blood sample was carried out according to the method described by. Briefly, the mouse plasma sample (0.2 mL) was transferred into glass test tube. 3 mL mixture solvent of ethyl acetate and hexane (90:10%, v/v) was added to the tubes and was vortexed for 3 min. Following a centrifugation for 7 min, 1.5 mL of organic phase was removed to another tube and evaporated. The dry residue was reconstituted with 100 μL of acetonitrile, vortexed for 30 s and 20 μL of the mixture was injected into the chromatograph. However, in contrast with noted reference we use HPLC conditions as described in HPLC analyses of this section.

The procedure of series [3]:
In this study, the stability constant and stoichiometry of the complex were calculated using Benesi-Hildebrant diagram (Equation (1)):Δδmax/Δδ − 1 = 1/[CD]^n × 1/K(1) where K is the stability constant of the complex, and Δδ is change of chemical shift.
Measurement of K values at different temperatures at 30–50 °C allows us to calculate the thermodynamic parameters of the HP-β-CD complex. From the dependence of R × lnK vs. 1/T using formulas (Equation (2)) and (Equation (3)), one can calculate the main thermodynamic parameters of complexation: the change in the Gibbs energy, enthalpy, and entropy:R × lnK = −ΔH^0/T + ΔS^0(2) ΔG^0 = ΔH^0 − TΔS^0(3)
^1H-NMR spectra were recorded on an Avance III 500 MHz spectrometer (Bruker, Rheinstetten, Germany) in D2O and CD3OD (99.8%, Sigma-Aldrich, Moscow, Russia) solutions as well as in their mixture. Spin-spin relaxation time T2 was measured by the Carr-Purcell-Meiboom-Gill (CPMG) pulse sequence.

For series [4] the following is noted: alcohol solution, 400 nm.
The mark [5] stands for this setting: CD-1, mouse, serum, oral, 20 mg/kg.
[6] abbreviates: single per os, NIM dose 20 mg/kg, mice.

A word on the Tmax: it is the time from dosing to the highest level. Usually half-life stands for the time needed for the level to fall by half in the phase considered. Low values mean fast loss, high ones slow loss. For the compound `CS(=O)(=O)Nc1ccc([N+](=O)[O-])cc1Oc1ccccc1` [NIM, N-(4-nitro-2-phenoxyphenyl)methanesulfonamide], in series [1], the “dose of NIM with significant anti-inflammatory effect” value was 20 mg/kg. Moreover, in series [2] (setting [5]), the Tmax was 0.572 h and the half-life is 1.48 ± 0.347 h. Besides, in series [2] (setting [6]), the “AUC 0-inf_obs” value is given as 3978.88 ± 242.62 mkg/mL*min and the Cmax was 38.43 ± 3.25 mkg/mL. Moreover, in series [3] (30 °C, 1:1 complex), the “stability constant of the complex with HP-β-CD, cycle A” value was found to be 140 M⁻¹ and the “stability constant of the complex with HP-β-CD, cycle B” value is 490 M⁻¹. In series [3] (303 K), the “TΔS^0 of complexation with HP-β-CD, cycle A” value is -6.7 ± 0.3 kcal/mol; the “TΔS^0 of complexation with HP-β-CD, cycle B” value was -8.2 ± 0.5 kcal/mol; the “ΔG^0 of complexation with HP-β-CD, cycle B” value is -3.0 kcal/mol; the “ΔH^0 of complexation with HP-β-CD, cycle A” value is -10.5 ± 0.5 kcal/mol. Besides, the “ΔH^0 of complexation with HP-β-CD, cycle B” value in series [3] (303 K) was -12.2 ± 1.0 kcal/mol. In addition, the “stability constant of the chelate complex with magnesium ions” value in series [4] is reported as 22,300 ± 7400 M^−1.
